In PubChem BioAssay (NCI):
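Test compounds were applied to cells in 96-well plates for 48 hours at 5 doses. GI50 = concentration required for 50% inhibition of growth. TGI: total growth inhibition.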

How the values were obtained:
Assay in all cases: DTP human tumour cell line panel, 48 h
RPMI-8226 leukemia = system: RPMI-8226 leukemia
HOP-62 NSCLC = system: HOP-62 NSCLC
NCI/ADR-RES ovarian = system: NCI/ADR-RES ovarian
OVCAR-8 ovarian = system: OVCAR-8 ovarian
UACC-257 melanoma = system: UACC-257 melanoma
MDA-MB-231 breast = system: MDA-MB-231 breast
A498 renal = system: A498 renal
OVCAR-3 ovarian = system: OVCAR-3 ovarian
A549 NSCLC = system: A549 NSCLC
CCRF-CEM leukemia = system: CCRF-CEM leukemia
NCI-H522 lung = system: NCI-H522 lung
UACC-62 melanoma = system: UACC-62 melanoma
SNB-19 CNS = system: SNB-19 CNS
SK-MEL-28 melanoma = system: SK-MEL-28 melanoma
TK-10 renal = system: TK-10 renal
IGROV1 ovarian = system: IGROV1 ovarian
UO-31 renal = system: UO-31 renal
HS 578T breast = system: HS 578T breast
HL-60(TB) leukemia = system: HL-60(TB) leukemia
HCT-116 colon = system: HCT-116 colon
CAKI-1 renal = system: CAKI-1 renal
MALME-3M melanoma = system: MALME-3M melanoma
U251 CNS = system: U251 CNS
SF-539 CNS = system: SF-539 CNS
SN12C renal = system: SN12C renal
OVCAR-5 ovarian = system: OVCAR-5 ovarian
SNB-75 CNS = system: SNB-75 CNS
PC-3 prostate = system: PC-3 prostate
SW-620 colon = system: SW-620 colon
NCI-H460 lung = system: NCI-H460 lung
HCC-2998 colon = system: HCC-2998 colon
RXF 393 renal = system: RXF 393 renal
SF-295 CNS = system: SF-295 CNS
MOLT-4 leukemia = system: MOLT-4 leukemia
SK-MEL-2 melanoma = system: SK-MEL-2 melanoma
COLO 205 colon = system: COLO 205 colon
DU-145 prostate = system: DU-145 prostate
LOX IMVI melanoma = system: LOX IMVI melanoma
NCI-H23 lung = system: NCI-H23 lung
BT-549 breast = system: BT-549 breast
SK-MEL-5 melanoma = system: SK-MEL-5 melanoma
M14 melanoma = system: M14 melanoma
EKVX NSCLC = system: EKVX NSCLC
KM12 colon = system: KM12 colon
HT29 colon = system: HT29 colon
HOP-92 NSCLC = system: HOP-92 NSCLC
SF-268 CNS = system: SF-268 CNS
SR leukemia = system: SR leukemia
HCT-15 colon = system: HCT-15 colon
K-562 leukemia = system: K-562 leukemia
MDA-MB-435 = system: MDA-MB-435
OVCAR-4 ovarian = system: OVCAR-4 ovarian
786-0 renal = system: 786-0 renal

## O=C(Nc1ccc(F)cc1F)c1cc(F)ccc1O
RPMI-8226 leukemia
  GI50: 1.4 µM
  TGI: 5.01 µM
HOP-62 NSCLC
  GI50: 2.9 µM
  TGI: 47.2 µM
NCI/ADR-RES ovarian
  GI50: 2.81 µM
  TGI: 9.78 µM
OVCAR-8 ovarian
  GI50: 3.44 µM
  TGI: > 100 µM
UACC-257 melanoma
  GI50: 2.26 µM
  TGI: 7.32 µM
MDA-MB-231 breast
  GI50: 1.9 µM
  TGI: 4.9 µM
A498 renal
  GI50: 1.84 µM
  TGI: 5.53 µM
OVCAR-3 ovarian
  GI50: 2.77 µM
  TGI: 21.9 µM
A549 NSCLC
  GI50: 3.04 µM
  TGI: > 100 µM
CCRF-CEM leukemia
  GI50: 3.35 µM
  TGI: > 100 µM
NCI-H522 lung
  GI50: 2.59 µM
  TGI: > 100 µM
UACC-62 melanoma
  GI50: 1.38 µM
  TGI: 4.12 µM
SNB-19 CNS
  GI50: 3.17 µM
  TGI: > 100 µM
SK-MEL-28 melanoma
  GI50: 2.77 µM
  TGI: 13.2 µM
TK-10 renal
  GI50: 4.48 µM
  TGI: > 100 µM
IGROV1 ovarian
  GI50: 2.58 µM
  TGI: > 100 µM
UO-31 renal
  GI50: 1.96 µM
  TGI: 7.16 µM
HS 578T breast
  GI50: 2.37 µM
  TGI: 9.14 µM
HL-60(TB) leukemia
  GI50: 2.33 µM
  TGI: 5.38 µM
HCT-116 colon
  GI50: 2.91 µM
  TGI: 11.1 µM
CAKI-1 renal
  GI50: 2.37 µM
  TGI: 11.6 µM
MALME-3M melanoma
  GI50: 2.04 µM
  TGI: 7.66 µM
U251 CNS
  GI50: 2.95 µM
  TGI: > 100 µM
SF-539 CNS
  GI50: 2.85 µM
  TGI: 12.3 µM
SN12C renal
  GI50: 2.2 µM
  TGI: 8.02 µM
OVCAR-5 ovarian
  GI50: 3.18 µM
  TGI: > 100 µM
SNB-75 CNS
  GI50: 3.19 µM
  TGI: 30.7 µM
PC-3 prostate
  GI50: 2.61 µM
  TGI: 9.53 µM
SW-620 colon
  GI50: 3.15 µM
  TGI: > 100 µM
NCI-H460 lung
  GI50: 2.94 µM
  TGI: > 100 µM
HCC-2998 colon
  GI50: 3.12 µM
  TGI: 13.1 µM
RXF 393 renal
  GI50: 2.49 µM
  TGI: 8.33 µM
SF-295 CNS
  GI50: 1.99 µM
  TGI: 4.36 µM
MOLT-4 leukemia
  GI50: 2.63 µM
  TGI: 6.88 µM
SK-MEL-2 melanoma
  GI50: 2.48 µM
  TGI: 6.54 µM
COLO 205 colon
  GI50: 2.08 µM
  TGI: 5.06 µM
DU-145 prostate
  GI50: 3.62 µM
  TGI: > 100 µM
LOX IMVI melanoma
  GI50: 3.39 µM
  TGI: 12.1 µM
NCI-H23 lung
  GI50: 2.07 µM
  TGI: 6.62 µM
BT-549 breast
  GI50: 2.43 µM
  TGI: 6.75 µM
SK-MEL-5 melanoma
  GI50: 1.27 µM
  TGI: 2.81 µM
M14 melanoma
  GI50: 2.82 µM
  TGI: 13.2 µM
EKVX NSCLC
  GI50: 2.23 µM
  TGI: 10.5 µM
KM12 colon
  GI50: 2.76 µM
  TGI: 10.6 µM
HT29 colon
  GI50: 3.37 µM
  TGI: > 100 µM
HOP-92 NSCLC
  GI50: 0.569 µM
  TGI: 3.59 µM
SF-268 CNS
  GI50: 3.34 µM
  TGI: 67.1 µM
SR leukemia
  GI50: 3.95 µM
  TGI: > 100 µM
HCT-15 colon
  GI50: 2.92 µM
  TGI: > 100 µM
K-562 leukemia
  GI50: 2.41 µM
  TGI: > 100 µM
MDA-MB-435
  GI50: 2.86 µM
  TGI: 34.2 µM
OVCAR-4 ovarian
  GI50: 2.59 µM
  TGI: > 100 µM
786-0 renal
  GI50: 3.19 µM
  TGI: 16.2 µM
